Experimental findings from patent US8415359B2, “Phenylpyrrole derivative” (Daiichi Sankyo Company, Limited, priority 2008, dated 2013) are described below.

This experiment concerns the target T1, human pancreatic GK (human glucokinase variant 1, GST-fused protein) (Homo sapiens, UniProt P35557).
T1 construct: made in house; host or cells: Escherichia coli (such as BL21 or JM109)
T1 sequence (P35557 1-465): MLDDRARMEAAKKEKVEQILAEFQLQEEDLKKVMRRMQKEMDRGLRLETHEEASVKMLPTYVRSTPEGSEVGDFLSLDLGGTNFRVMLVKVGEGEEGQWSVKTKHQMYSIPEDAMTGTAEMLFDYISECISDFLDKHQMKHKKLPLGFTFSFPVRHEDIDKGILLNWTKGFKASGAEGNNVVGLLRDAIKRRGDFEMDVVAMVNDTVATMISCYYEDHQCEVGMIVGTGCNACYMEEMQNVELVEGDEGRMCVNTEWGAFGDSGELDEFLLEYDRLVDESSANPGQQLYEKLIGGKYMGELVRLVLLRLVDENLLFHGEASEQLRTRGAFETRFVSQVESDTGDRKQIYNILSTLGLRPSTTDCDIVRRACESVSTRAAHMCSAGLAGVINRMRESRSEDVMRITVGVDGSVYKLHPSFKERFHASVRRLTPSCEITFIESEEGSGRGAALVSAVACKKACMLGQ
Put plainly: GK activity test (GK activation rate). It is filed as biochemical. The conditions noted are these: test compound 1 μM; glucose 5 mM; 30 min at room temperature; absorbance at 340 nm with test compound / without test compound. Here is the method: cDNA encoding human pancreatic GK polypeptide (GenBank Accession No. NM_000162, human glucokinase variant 1) was cloned from a human cDNA library by polymerase chain reaction (PCR), and introduced into a glutathione S-transferase (GST)-fused protein expression vector (GEX4T, GE Healthcare Bioscience). The vector was introduced into Escherichia coli (such as BL21 or JM109, Invitrogen), and the transformed E. coli was cultured overnight at 37° C. followed by recovery of the cells. After freezing and thawing the recovered cells, the cells were suspended in phosphate buffer containing Triton-X at a final concentration of 1% followed by disrupting the cells with an ultrasonic homogenizer. The supernatant obtained by low-speed centrifugation treatment of the homogenate (10,000×g, 30 minutes) was further subjected to high-speed centrifugation (100,000×g, 10 minutes) followed by recovering the supernatant and purifying the fused protein using a GST fused protein purification system (Bulk GST Purification Module, GE Healthcare Bioscience). The GK fused protein was divided into smaller aliquots and stored at −80° C.
GK activity was measured using the GK purified in (1) above. More specifically, an enzyme solution was prepared by adding the purified GK of (1) above and glucose-6-phosphate dehydrogenase (Sigma) to solution 1 of a glucose assay kit (D-Glucose UV Method, Roche Diagnostics). The enzyme solution, a test compound diluent and glucose (final concentration: 5 mM) were mixed in a 96-well ELISA plate, and allowed to react for 30 minutes at room temperature. Following completion of the reaction, absorbance at a wavelength of 340 nm was measured using SpectraMax Plus (Molecular Probe). Furthermore, unreacted (when glucose was not added) absorbance was used for the background.
GK activation rates were indicated with values represented by the following numerical formula: (absorbance after reacting for 30 minutes when test compound added)/(absorbance after reacting for 30 minutes when test compound not added).

Consider `COC[C@H](C)Oc1cc(Oc2ccc(C(=O)N3CCC3)cc2F)cc(-c2ccc(C3=NCCO3)[nH]2)c1` [Example 68, 2-(5-{3-[4-(Azetidin-1-ylcarbonyl)-2-fluorophenoxy]-5-[(1S)-2-methoxy-1-methylethoxy]phenyl}-1H-pyrrol-2-yl)-4,5-dihydro-1,3-oxazole], for which the “GK Activation Rate” value was 2.0. The result for `COC[C@H](C)Oc1cc(Oc2ccc(S(C)(=O)=O)cc2)cc(-c2ccc(C3=NCC(CO)O3)[nH]2)c1` (stereo partly drawn) [Example 29, [2-(5-{3-[(1S)-2-Methoxy-1-methylethoxy]-5-[4-(methylsulfonyl)phenoxy]phenyl}-1H-pyrrol-2-yl)-4,5-dihydro-1,3-oxazol-5-yl]methanol] reads 2.0; that for `COC[C@H](C)Oc1cc(Oc2cnc(S(C)(=O)=O)cn2)cc(-c2ccc(C3=N[C@H](CO)[C@H](C)O3)[nH]2)c1` [Example 110, {(4R,5S)-2-[5-(3-{[(2S)-1-Methoxypropan-2-yl]oxy}-5-{[5-(methylsulfonyl)pyrazin-2-yl]oxy}phenyl)-1H-pyrrol-2-yl]-5-methyl-4,5-dihydro-1,3-oxazol-4-yl}methanol], 2.4. The same measure for `COC[C@H](C)Oc1cc(Oc2ccc(S(C)(=O)=O)cc2)cc(-c2ccc(-c3ncc(C)s3)[nH]2)c1` [Example 3, 2-(5-{3-[(1S)-2-Methoxy-1-methylethoxy]-5-[4-(methylsulfonyl)phenoxy]phenyl}-1H-pyrrol-2-yl)-5-methyl-1,3-thiazole]: 1.9; for `C[C@@H]1OC(c2ccc(-c3cc(Oc4cnc(S(C)(=O)=O)cn4)cc(O[C@@H](C)CO)c3)[nH]2)=N[C@@H]1C` [Example 109, (2S)-2-(3-{5-[(4R,5S)-4,5-Dimethyl-4,5-dihydro-1,3-oxazol-2-yl]-1H-pyrrol-2-yl}-5-{[5-(methylsulfonyl)pyrazin-2-yl]oxy}phenoxy)propan-1-ol]: 2.2.

For `Cc1nnc(-c2ccc(-c3cc(Oc4ccc(S(C)(=O)=O)nc4)cc(O[C@@H](C)CO)c3)[nH]2)o1` [Example 81, (2S)-2-(3-[5-(5-Methyl-1,3,4-oxadiazol-2-yl)-1H-pyrrol-2-yl]-5-{[6-(methylsulfonyl)pyridin-3-yl]oxy}phenoxy)propan-1-ol], the “GK Activation Rate” value was determined as 2.2. The result for `COC[C@H](C)Oc1cc(Oc2ccc(S(C)(=O)=O)nc2)cc(-c2ccc(C3=NC[C@H](C)O3)[nH]2)c1` [Example 76, 5-(3-[(1S)-2-Methoxy-1-methylethoxy]-5-{5-[(5S)-5-methyl-4,5-dihydro-1,3-oxazol-2-yl]-1,4-pyrrol-2-yl}phenoxy)-2-(methylsulfonyl)pyridine] reads 3.0; that for `CNC(=O)c1ccc(Oc2cc(O[C@@H](C)COC)cc(-c3ccc(C4=NC[C@H](CO)O4)[nH]3)c2)cn1` [Example 126, 5-(3-{5-[(5R)-5-(Hydroxymethyl)-4,5-dihydro-1,3-oxazol-2-yl]-1H-pyrrol-2-yl}-5-[(1S)-2-methoxy-1-methylethoxy]phenoxy)-N-methylpyridine-2-carboxamide], 2.6; that for `COC[C@H](C)Oc1cc(Oc2ccc(S(C)(=O)=O)nc2)cc(-c2ccc(C3=N[C@H]([C@H](C)O)CO3)[nH]2)c1` [Example 93, (1S)-1-{(4S)-2-[5-(3-[(1S)-2-Methoxy-1-methylethoxy]-5-{[6-(methylsulfonyl)pyridin-3-yl]oxy}phenyl)-1H-pyrrol-2-yl]-4,5-dihydro-1,3-oxazol-4-yl}ethanol], 2.4. The result for `COC[C@H](C)Oc1cc(Oc2ccc(C(=O)N3CCCC3)cc2F)cc(-c2ccc(-c3nccs3)[nH]2)c1` [Example 47, 2-(5-{3-[2-Fluoro-4-(pyrrolidin-1-ylcarbonyl)phenoxy]-5-[(1S)-2-methoxy-1-methylethoxy]phenyl}-1H-pyrrol-2-yl)-1,3-thiazole] reads 2.0. Turning to `COC[C@H](C)Oc1cc(Oc2ncc(C(=O)N3CCC3)cc2Cl)cc(-c2ccc(C3=NC[C@H](C)O3)[nH]2)c1` [Example 74, 5-(Azetidin-1-ylcarbonyl)-3-chloro-2-(3-[(1S)-2-methoxy-1-methylethoxy]-5-{5-[(5S)-5-methyl-4,5-dihydro-1,3-oxazol-2-yl]-1H-pyrrol-2-yl}phenoxy)pyridine], the “GK Activation Rate” value is 2.0. As for `CC[C@@H]1COC(c2ccc(-c3cc(Oc4cnc(S(C)(=O)=O)cn4)cc(O[C@@H](C)CO)c3)[nH]2)=N1` [Example 108, (2S)-2-(3-{5-[(4R)-4-Ethyl-4,5-dihydro-1,3-oxazol-2-yl]-1H-pyrrol-2-yl}-5-{[5-(methylsulfonyl)pyrazin-2-yl]oxy}phenoxy)propan-1-ol], the “GK Activation Rate” value was 2.0. With `COC[C@H](C)Oc1cc(Oc2ccc(S(C)(=O)=O)cc2)cc(-c2ccc(C3=NC[C@H](CO)O3)[nH]2)c1` [Example 35, [(5R)-2-(5-{3-[(1S)-2-Methoxy-1-methylethoxy]-5-[4-(methylsulfonyl)phenoxy]phenyl}-1H-pyrrol-2-yl)-4,5-dihydro-1,3-oxazol-5-yl]methanol], the “GK Activation Rate” value stood at 2.1. As to `COC[C@H](C)Oc1cc(Oc2ccc(S(C)(=O)=O)cc2)cc(-c2ccc(-c3nccs3)[nH]2)c1` [Example 1, 2-(5-{3-[(1S)-2-Methoxy-1-methylethoxy]-5-[4-(methylsulfonyl)phenoxy]phenyl}-1H-pyrrol-2-yl)-1,3-thiazole], the “GK Activation Rate” value came out at 2.0. The same measure for `COC[C@H](C)Oc1cc(Oc2cnc(C(=O)N3CCN(C)CC3)cn2)cc(-c2ccc(-c3nccs3)[nH]2)c1` [Example 64, 2-{3-[(1S)-2-Methoxy-1-methylethoxy]-5-[5-(1,3-thiazol-2-yl)-1H-pyrrol-2-yl]phenoxy}-5-[(4-methylpiperazin-1-yl)carbonyl]pyrazine]: 1.9; for `COC[C@H](C)Oc1cc(Oc2ccc(S(C)(=O)=O)cc2)cc(-c2ccc(C(C)=O)[nH]2)c1` [Example 15, 1-(5-{3-[(1S)-2-Methoxy-1-methylethoxy]-5-[4-(methylsulfonyl)phenoxy]phenyl}-1H-pyrrol-2-yl)ethanone]: 1.6; for `C[C@@H]1COC(c2ccc(-c3cc(Oc4ccc(S(C)(=O)=O)nc4)cc(O[C@@H](C)CO)c3)[nH]2)=N1` [Example 84, (2S)-2-(3-{5-[(4R)-4-Methyl-4,5-dihydro-1,3-oxazol-2-yl]-1H-pyrrol-2-yl}-5-{-[6-(methylsulfonyl)pyridin-3-yl]oxy}phenoxy)propan-1-ol]: 2.7. As to `CNC(=O)c1ccc(Oc2cc(O[C@@H](C)CO)cc(-c3ccc(C4=NC[C@H](C)O4)[nH]3)c2)cn1` [Example 123, 5-(3-[(1S)-2-Hydroxy-1-methylethoxy]-5-{5-[(5S)-5-methyl-4,5-dihydro-1,3-oxazol-2-yl]-1H-pyrrol-2-yl}phenoxy)-N-methylpyridine-2-carboxamide], the “GK Activation Rate” value is reported as 2.6. Consider `C[C@H]1CN=C(c2ccc(-c3cc(Oc4ccc(C(=O)N5CCC5)cc4F)cc(O[C@@H](C)CO)c3)[nH]2)O1` [Example 70, (2S)-2-(3-[4-(Azetidin-1-ylcarbonyl)-2-fluorophenoxy]-5-{5-[(5S)-5-methyl-4,5-dihydro-1,3-oxazol-2-yl}-1H-pyrrol-2-yl]phenoxy)propan-1-ol], for which the “GK Activation Rate” value was 1.9.
